Measured values as given in patent publication US6218393A, “Anthranilic acid derivatives as multi drug resistance modulators” (priority 1997, dated 2001).
Blank lines part the entries; values can stand above or below the molecule they belong to.

Experiments:
AR 1.0 cells [1] = assay: Drug accumulation assay: daunorubicin accumulation in AR 1.0 cells; format: cell-based; conditions: Mus musculus, 100% = accumulation with verapamil 100 μM, 1 hr, 37° C.
How it was run: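 AR 1.0 is the MDR-resistant subline of EMT6 mouse mammary carcinoma, grown in RPMI 1640 with 10% foetal calf serum and 2 mM glutamine at 37 °C, 5% CO2. Cells were seeded 48 h before the daunorubicin accumulation assay.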

AR 1.0 cells [2] = assay: Potentiation of doxorubicin toxicity: proliferation assay (sulphorhodamine B); format: cell-based, mouse
From the text: (a) Selected compounds of formula (I) were examined for their ability to potentiate the toxicity of doxorubicin in AR 1.0 cells.

AR 1.0 cells [3] = assay: Potentiation index with doxorubicin titration; format: cell-based, mouse; conditions: for Potentiation Index at RMA concentration 10 nM: Table C2, RMA 10 nM; for Potentiation Index at RMA concentration 30 nM: Table C2, RMA 30 nM; for Potentiation Index at RMA concentration 100 nM: Table C2, RMA 100 nM; for Potentiation Index at RMA concentration 300 nM: Table C2, RMA 300 nM; for Potentiation Index at RMA concentration 500 nM: Table C2, RMA 500 nM
How it was run: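 MDR-resistant mouse EMT6 subline AR 1.0 grown four days with a doxorubicin titration (0.263 nM-17.24 μM) plus a fixed compound concentration; proliferation by sulphorhodamine B. Potentiation index derived from doxorubicin IC50 alone versus with compound.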

[4] = Mus musculus, 96 h, compound alone, four day proliferation, read-out: Compound Toxicity (IC50)
[5] = with fixed doxorubicin 0.34 μm, four days, 5760 min, read-out: Toxicity with Cytotoxic Agent (IC50)

Compound: COc1cc2c(cc1OC)CN(CCCNC(=O)c1ccccc1NC(=O)c1ccc(C3CCCCC3)cc1)CC2 [compound 9466]
IC50 (AR 1.0 cells [1]): 1400 nM
IC50 (AR 1.0 cells [2]; [4]): 6000 nM
IC50 (AR 1.0 cells [2]; [5]): 50 nM
Potentiation Index at RMA concentration 300 nM (AR 1.0 cells [3]): 30
Potentiation Index at RMA concentration 500 nM (AR 1.0 cells [3]): 60

Compound: COc1cc2c(cc1OC)CN(CCNC(=O)c1ccccc1NC(=O)c1ccc(OC3CCCCC3)cc1)CC2 [compound 9459, 2-(4-Cyclohexyloxy-benzoylamino)-N-[2-(6,7-dimethoxy-3,4-dihydro-1H-isoquinolin-2-yl)-ethyl]-benzamide]
IC50 (AR 1.0 cells [1]): 650 nM
IC50 (AR 1.0 cells [2]; [4]): 8500 nM
IC50 (AR 1.0 cells [2]; [5]): 90 nM
Potentiation Index at RMA concentration 300 nM (AR 1.0 cells [3]): 45
Potentiation Index at RMA concentration 500 nM (AR 1.0 cells [3]): 112

Compound: COc1cc2c(cc1OC)CN(CCc1ccc(NC(=O)c3ccccc3NC(=O)c3cnc4c(c3)CCCC4)cc1)CC2 [compound 9590, 5,6,7,8-Tetrahydroquinoline-3-carboxylic acid (2-{4-[2-(6,7-dimethoxy-3,4-dihydro-1H-isoquinolin-2-yl)-ethyl]-phenylcarbamoyl}-phenyl)-amide]
IC50 (AR 1.0 cells [1]): 97 nM
IC50 (AR 1.0 cells [2]; [4]): 9500 nM
Potentiation Index at RMA concentration 10 nM (AR 1.0 cells [3]): 2
Potentiation Index at RMA concentration 30 nM (AR 1.0 cells [3]): 14

Compound: COc1cc2c(cc1OC)CN(CCNC(=O)c1c(Cl)cccc1NC(=O)c1ccc(C(C)C)cc1)CC2 [compound 9405, 2-(4-Isopropyl-benzoylamino)-N-[2-(6,7-dimethoxy-3,4-dihydro-1H-isoquinolin-2-yl)-ethyl]-6-chioro-benzamide]
IC50 (AR 1.0 cells [1]): 300 nM
IC50 (AR 1.0 cells [2]; [4]): 22000 nM
IC50 (AR 1.0 cells [2]; [5]): 90 nM
Potentiation Index at RMA concentration 500 nM (AR 1.0 cells [3]): 8.6

Compound: COc1cc2c(cc1OC)CN(CCNC(=O)c1ccccc1NC(=O)c1ccc(C3CCCCC3)cc1)CC2 [compound 9331, 2-(4-Cyclohexyl-benzoylamino)-N-[2-(6,7-dimethoxy-3,4-dihydro-1H-isoquinolin-2-yl)-ethyl]-benzamide]
IC50 (AR 1.0 cells [1]): 1300 nM
IC50 (AR 1.0 cells [2]; [4]): 7000 nM
IC50 (AR 1.0 cells [2]; [5]): 40 nM
Potentiation Index at RMA concentration 300 nM (AR 1.0 cells [3]): 40
Potentiation Index at RMA concentration 500 nM (AR 1.0 cells [3]): 120

Compound: COc1cc2c(cc1OC)CN(CCNC(=O)c1ccc([N+](=O)[O-])cc1NC(=O)c1ccc(C(C)C)cc1)CC2 [compound 9420, 2-(4-Isopropyl-benzoylamino)-N-[2-(6,7-dimethoxy-3,4-dihydro-1H-isoquinolin-2-yl)-ethyl]-4-nitro-benzamide]
IC50 (AR 1.0 cells [1]): 1900 nM
IC50 (AR 1.0 cells [2]; [4]): 7000 nM
IC50 (AR 1.0 cells [2]; [5]): 400 nM
Potentiation Index at RMA concentration 500 nM (AR 1.0 cells [3]): 25

Compound: COc1cc2c(cc1OC)CN(CCc1ccc(NC(=O)c3ccccc3NC(=O)c3ccc4ccccc4c3)cc1)CC2 [compound 9476, Naphthaiene-2-carboxylic acid (2-{4-[2-(6,7-dimethoxy-3,4-dihydro-1H-isoquinolin-2-yl)-ethyl]-phenylcarbamoyl}-phenyl)-amide]
IC50 (AR 1.0 cells [1]): 350 nM
IC50 (AR 1.0 cells [2]; [4]): 2000 nM
Potentiation Index at RMA concentration 300 nM (AR 1.0 cells [3]): 83
Potentiation Index at RMA concentration 500 nM (AR 1.0 cells [3]): 136

Compound: COc1cc2c(cc1OC)CN(CCc1ccc(NC(=O)c3ccccc3NC(=O)c3ccc(C4CCCCC4)cc3)cc1)CC2 [compound 9461, 2-(4-Cyclohexyl-benzoylamino)-N-{4-[2-(6,7-dimethoxy-3,4-dihydro-1H-isoquinolin-2-yl)-ethyl]-phenyl}-benzamide]
IC50 (AR 1.0 cells [1]): 1800 nM
IC50 (AR 1.0 cells [2]; [4]): 7500 nM
IC50 (AR 1.0 cells [2]; [5]): 300 nM
Potentiation Index at RMA concentration 300 nM (AR 1.0 cells [3]): 13
Potentiation Index at RMA concentration 500 nM (AR 1.0 cells [3]): 30

Further lines, with some results ahead:

IC50 (AR 1.0 cells [1]): 53 nM
Compound: COc1cc2c(cc1OC)CN(Cc1ccc(NC(=O)c3ccccc3NC(=O)c3cnc4ccccc4n3)cc1)CC2 [compound 9572, Quinoxaline-2-carboxylic acid {2-[4-(6,7-dimethoxy-3,4-dihydro-1H-isoquinolin-2-ylmethyl)-phenylcarbamoyl}-phenyl}-amide]
IC50 (AR 1.0 cells [2]; [4]): 1700 nM
IC50 (AR 1.0 cells [2]; [5]): 14 nM
Potentiation Index at RMA concentration 10 nM (AR 1.0 cells [3]): 2.7
Potentiation Index at RMA concentration 30 nM (AR 1.0 cells [3]): 25
Potentiation Index at RMA concentration 100 nM (AR 1.0 cells [3]): 83

IC50 (AR 1.0 cells [1]): 50 nM
Compound: COc1cc2c(cc1OC)CN(CCc1ccc(NC(=O)c3ccccc3NC(=O)c3cnc4ccccc4c3)cc1)CC2 [compound 9544, Quinoline-3-carboxylic acid (2-{4-[2-(6,7-dimethoxy-3,4-dihydro-1H-isoquinolin-2-yl)ethyl]-phenylcarbamoyl}-phenyl)-amide]
IC50 (AR 1.0 cells [2]; [4]): 1900 nM
IC50 (AR 1.0 cells [2]; [5]): 7.7 nM
Potentiation Index at RMA concentration 10 nM (AR 1.0 cells [3]): 15
Potentiation Index at RMA concentration 30 nM (AR 1.0 cells [3]): 67
Potentiation Index at RMA concentration 100 nM (AR 1.0 cells [3]): 120
Potentiation Index at RMA concentration 300 nM (AR 1.0 cells [3]): 150

IC50 (AR 1.0 cells [1]): 180 nM
Compound: COc1cc2c(cc1OC)CN(CCc1ccc(NC(=O)c3ccc(Cl)cc3NC(=O)c3cnc4ccccc4c3)cc1)CC2 [compound 9586, Quinoline-3-carboxylic acid (2-{4-[2-(6,7-dimethoxy-3,4-dihydro-1H-isoquinolin-2-yl)-ethyl]-phenylcarbamoyl}-5-chloro-phenyl)-amide]
IC50 (AR 1.0 cells [2]; [4]): 7400 nM
Potentiation Index at RMA concentration 10 nM (AR 1.0 cells [3]): 5
Potentiation Index at RMA concentration 30 nM (AR 1.0 cells [3]): 6

IC50 (AR 1.0 cells [1]): 17 nM
Compound: COc1cc2c(cc1OC)CN(CCc1ccc(NC(=O)c3cc(F)ccc3NC(=O)c3cnc4ccccc4n3)cc1)CC2 [compound 9568, Quinoxaline-2-carboxylic acid. (2-{4-[2-(6,7-dimethoxy-3,4-dihydro-1H-isoquinolin-2-yl)-ethyl]-phenylcarbamoyl}-4-fluoro-phenyl)-amide]
IC50 (AR 1.0 cells [2]; [4]): 2800 nM
IC50 (AR 1.0 cells [2]; [5]): 3.4 nM
Potentiation Index at RMA concentration 10 nM (AR 1.0 cells [3]): 23
Potentiation Index at RMA concentration 30 nM (AR 1.0 cells [3]): 60
Potentiation Index at RMA concentration 100 nM (AR 1.0 cells [3]): 88

IC50 (AR 1.0 cells [1]): 200 nM
Compound: COc1cc2c(cc1OC)CN(CCc1ccc(NC(=O)c3c(F)cccc3NC(=O)c3cnc4ccccc4n3)cc1)CC2 [compound 9564, Quinoxaline-2-carboxylic acid (2-{4-[2-(6,7-dimethoxy-3,4-dihydro-1H-isoquinolin-2-yl)-ethyl]-phenylcarbamoyl}-3-fluoro-phenyl)-amide]
IC50 (AR 1.0 cells [2]; [4]): 400 nM
IC50 (AR 1.0 cells [2]; [5]): 8 nM
Potentiation Index at RMA concentration 100 nM (AR 1.0 cells [3]): 129

IC50 (AR 1.0 cells [1]): 160 nM
Compound: COc1cc2c(cc1OC)CN(CCCc1ccc(NC(=O)c3ccccc3NC(=O)c3cnc4ccccc4n3)cc1)CC2 [compound 9567, Quinoxaline-2-carboxyXic acid (2-{4-[3-(6,7-dimethoxy-3,4-dihydro-1H-isoquinolin-2-yl)-propyl]-phenylcarbamoyl}-phenyl)-amide]
IC50 (AR 1.0 cells [2]; [4]): 1700 nM
IC50 (AR 1.0 cells [2]; [5]): 28 nM
Potentiation Index at RMA concentration 10 nM (AR 1.0 cells [3]): 1.7
Potentiation Index at RMA concentration 30 nM (AR 1.0 cells [3]): 8
Potentiation Index at RMA concentration 100 nM (AR 1.0 cells [3]): 112

IC50 (AR 1.0 cells [1]): 360 nM
Compound: COc1cc2c(cc1OC)CN(CCc1ccc(NC(=O)c3cc(C)ccc3NC(=O)c3cnc4ccccc4c3)cc1)CC2 [compound 9584, Quinoline-3-carboxylic acid (2,-{4-[2-(6,7-dimethoxy-3,4-dihydro-1H-isoquinolin-2-yl)-ethyl]-phenylcarbamoyl}-4-methyl-phenyl)-amide]
IC50 (AR 1.0 cells [2]; [4]): 8600 nM
Potentiation Index at RMA concentration 10 nM (AR 1.0 cells [3]): 2.1
Potentiation Index at RMA concentration 30 nM (AR 1.0 cells [3]): 36

IC50 (AR 1.0 cells [1]): 120 nM
Compound: COc1cc2c(cc1OC)CN(CCc1ccc(NC(=O)c3ccccc3NC(=O)c3ccc(F)cc3)cc1)CC2 [compound 9501, 2-(4-Fluoro-benzoylamino)-N-{4-[2-(6,7-dimethoxy-3,4-dihydro-1H-isoquinolin-2-yl)-ethyl]-phenyl}-benzamide]
IC50 (AR 1.0 cells [2]; [4]): 3000 nM
IC50 (AR 1.0 cells [2]; [5]): 40 nM
Potentiation Index at RMA concentration 30 nM (AR 1.0 cells [3]): 1.9
Potentiation Index at RMA concentration 100 nM (AR 1.0 cells [3]): 69
Potentiation Index at RMA concentration 300 nM (AR 1.0 cells [3]): 183
